Laboratory results as given in patent US12275688B2, “Crystalline solids of MEK inhibitor N-((R)-2,3-dihydroxypropoxy)-3,4-difluoro-2-(2-fluoro-4-iodo-phenylamino)-benzamide and uses thereof” (SpringWorks Therapeutics, Inc., priority 2021, dated 2025).

Tests used:
Type in all cases: physicochemical
[1] = Water activity studies of hydrates at 23° C.; details: water activities (aw) 0.6-0.99
Experimental: Water activity studies of the stable hydrated Forms VI and XIX were conducted to determine their relative thermodynamic stabilities. The studies were conducted at 23° C. in various water/ethanol mixtures to provide water activities (aw) from 0.6-0.99. The water activity range includes the approximate water activity of the current final isolation step of the mirdametinib manufacturing process. Saturated suspensions were prepared by stirring an excess of mirdametinib in the test solvents for 16 hours. The suspensions were filtered and transferred onto mixtures containing equivalent amounts of Form VI and Form XIX. […] The hydrates may be kinetically favored at higher water activities.

[2] = Drying of certain forms via vacuum oven at 45° C.; details: overnight in vacuum oven at 45° C.; PXRD at about 70% ambient lab humidity
Experimental: Drying studies for certain forms were conducted overnight in a vacuum oven at 45° C. After drying, samples were equilibrated to RT for 10 min. and analyzed by PXRD at about 70% ambient lab humidity.

[3] = Desolvation/dehydration by heating in TGA pan to 100° C.; details: 15° C./min from 25 to 100° C., 5 min. hold at 100° C., air-cooled to RT
Experimental: Desolvation/dehydration studies of certain forms were conducted in a TGA pan with loose lid at a heating rate of 15° C./min from 25 to 100° C. with a 5 min. hold at 100° C. Samples were air-cooled to RT on the TGA and analyzed by PXRD if crystalline. […] PXRD indicated Form I.

[4] = Toluene-spiked slurry studies of Form V in water:ethanol; details: water:ethanol (1.1/0.5 v/v) overnight at RT
Excerpt: The process-relevant toluene solvate (Form V) was stirred in water:ethanol (1.1/0.5 v/v) overnight at RT with varying amounts of added toluene. The suspensions were filtered, and solids analyzed by PXRD.

[5] = Solid-state stability of crystal forms at ambient conditions
Excerpt: The following sections describe and summarize the physical properties of each of the crystal forms observed for mirdametinib.

Compound | Relative stability versus hydrate Forms VI and XIX [1] | Form after vacuum oven drying (PXRD) [2] | Result of desolvation/dehydration by heating [3] | Form after slurry (PXRD) ([4]; 0.5% added toluene (relative to mirdametinib weight)) | Form after slurry (PXRD) ([4]; 1% and 2% added toluene) | Form after slurry (PXRD) ([4]; no added toluene) | Stable at ambient conditions for ([5]; ambient conditions) [days] | Stable in a capped vial for ([5]; capped vial) [weeks]
O=C(NOC[C@H](O)CO)c1ccc(F)c(F)c1Nc1ccc(I)cc1F [Form IV, N—((R)-2,3-dihydroxypropoxy)-3,4-difluoro-2-(2-fluoro-4-iodo-phenylamino)-benzamide] | more stable at water activities (aw) 0.6-0.99 than hydrate Forms VI and XIX |  |  |  |  |  |  | 
O=C(NOC[C@H](O)CO)c1ccc(F)c(F)c1Nc1ccc(I)cc1F [Form V, N—((R)-2,3-dihydroxypropoxy)-3,4-difluoro-2-(2-fluoro-4-iodo-phenylamino)-benzamide] |  | Remained unchanged | melted and solidified in molten, amorphous state, possible decomposition | converted to mostly Form IV with some lesser amount of Form V | higher relative amounts of Form V were observed | converted to phase-pure Form IV | ≥ 10 | 
O=C(NOC[C@H](O)CO)c1ccc(F)c(F)c1Nc1ccc(I)cc1F [Form XIX, N—((R)-2,3-dihydroxypropoxy)-3,4-difluoro-2-(2-fluoro-4-iodo-phenylamino)-benzamide] |  | Remained unchanged | solid particles (not melted). PXRD indicated Form I |  |  |  |  | ≥ 2
